Measured values: patent US9062284B2, “Uses and detection of herbicide resistance genes for resistance to aryloxyalkanoate herbicides” (Dow ArgoSciences LLC, priority 2007, dated 2015)

Legend:
[1] = tested on: AAD-13 (v1) transformed T1 Arabidopsis; experiment: Postemergence herbicide response of AAD-13 (v1) T1 Arabidopsis; type: in vivo, Arabidopsis thaliana; settings: 14 DAT
Experimental: Seven days after planting (DAP) and again 11 DAP, T1 plants (cotyledon and 2-4-lf stage, respectively) were sprayed with a 0.2% solution of Liberty herbicide (200 g ai/L glufosinate, Bayer Crop Sciences, Kansas City, Mo.) at a spray volume of 10 ml/tray (703 L/ha) using a DeVilbiss compressed air spray tip to deliver an effective rate of 280 g ai/ha glufosinate per application. Survivors (plants actively growing) were identified 4-7 days after the final spraying and transplanted individually into 3-inch pots prepared with potting media (Metro Mix 360). Transplanted plants were covered with humidity domes for 3-4 days and placed in a 22° C. growth chamber as before or moved to directly to the greenhouse. Domes were subsequently removed and plants reared in the greenhouse (22±5° C., 50±30% RH, 14 h light:10 dark, minimum 500 μE/m^2s^1 natural+supplemental light) at least 1 day prior to testing for the ability of AAD-13 (v1) to provide phenoxy auxin herbicide resistance.
T1 plants were then randomly assigned to various rates of 2,4-D. For Arabidopsis, 50 g ae/ha 2,4-D is an effective dose to distinguish sensitive plants from ones with meaningful levels of resistance. Elevated rates were also applied to determine relative levels of resistance (280, 560, 1120, or 2240 g ae/ha). Tables 11 and 12 show comparisons drawn to an aryloxyalkanoate herbicide resistance gene (AAD-12 (v1)) previously described in PCT/US2006/042133.
(§1) All auxin herbicide applications were made using the DeVilbiss sprayer as described above to apply 703 L/ha spray volume (0.4 ml solution/3-inch pot) or applied by track sprayer in a 187 L/ha spray volume. 2,4-D used was either technical grade (Sigma, St. Louis, Mo.) dissolved in DMSO and diluted in water (<1% DMSO final concentration) or the commercial dimethylamine salt formulation (456 g ae/L, NuFarm, St Joseph, Mo.). Dichlorprop used was commercial grade formulated as potassium salt of R-dichlorprop (600 g ai/L, AH Marks). As herbicide rates increased beyond 800 g ae/ha, the pH of the spray solution became exceedingly acidic, burning the leaves of young, tender Arabidopsis plants and complicating evaluation of the primary effects of the herbicides.
The first Arabidopsis transformations were conducted using AAD-13 (v1) (plant optimized gene). T1 transformants were first selected from the background of untransformed seed using a glufosinate selection scheme. Over 160,000 T1 seed were screened and 238 glufosinate resistant plants were identified (PAT gene), equating to a transformation/selection frequency of 0.15% which lies in the normal range of selection frequency of constructs where PAT+Liberty are used for selection. T1 plants selected above were subsequently transplanted to individual pots and sprayed with various rates of commercial aryloxyalkanoate herbicides. Table 11 compares the response of AAD-13 (v1) and control genes to impart 2,4-D resistance to Arabidopsis T1 transformants. Response is presented in terms of % visual injury 2 WAT. […] An arithmetic mean and standard deviation is presented for each treatment. The range in individual response is also indicated in the last column for each rate and transformation. PAT/Cry1F-transformed Arabidopsis served as an auxin-sensitive transformed control. The AAD-13 (v1) gene imparted herbicide resistance to individual T1 Arabidopsis plants. Within a given treatment, the level of plant response varied greatly and can be attributed to the fact each plant represents an independent transformation event. Of important note, at each 2,4-D rate tested, there were individuals that were unaffected while some were severely affected. […] At high rates the spray solution becomes highly acidic unless buffered therefore some of the injury may be attributed to the acidity of the spray solution. Arabidopsis grown mostly in the growth chamber has a very thin cuticle and severe burning effects can complicate testing at these elevated rates. […]

[2] = tested on: PAT/Cry1F-transformed tobacco; experiment: 2,4-D DMA response of PAT/Cry1F transformed control T0 tobacco; type: in vivo, Nicotiana tabacum; settings: 14 days after application
From the text: (§2) Following the acclimation in the greenhouse T0 plants were then randomly assigned to various rates of 2,4-D DMA ranging from 140 to 2240 g ae/ha at […] increments. For tobacco, 140 g ae/ha 2,4-D is an effective dose to distinguish sensitive plants from ones with meaningful levels of resistance.

[3] = tested on: AAD-13 (v1) gene T0 tobacco plants; experiment: 2,4-D DMA response of AAD-13 (v1) T0 tobacco; type: in vivo, Nicotiana tabacum; settings: for % Injury 20-40% (individuals) / % Injury <20% (individuals) / % Injury >40% (individuals) / % Injury Ave: 14 days after application
From the text: as §2

[4] = tested on: Wildtype (untransformed control) Arabidopsis; experiment: R-dichlorprop response of wildtype Arabidopsis; type: in vivo, Arabidopsis thaliana; settings: 800 g ae/ha postemergence, 14 DAT
Experimental: as §1
The fact that AAD-1 (v3) will metabolize R-dichlorprop well enough to impart commercially acceptable tolerance is one distinguishing characteristic that separates the three genes (Table 12 and Example 7 of PCT/US2006/042133 (Wright et al., filed Oct. 27, 2006). AAD-1 and AAD-13 are considered R- and S-specific α-ketoglutarate dioxygenases, respectively.

## CNC.O=C(O)COc1ccc(Cl)cc1Cl [2,4-D DMA]
[1]; 280 g ae/ha postemergence
  % Injury 20-40% (individuals): 4
  % Injury <20% (individuals): 12
  % Injury >40% (individuals): 4
  % Injury Ave: 21%
[1]; 560 g ae/ha postemergence
  % Injury 20-40% (individuals): 2
  % Injury <20% (individuals): 17
  % Injury >40% (individuals): 0
  % Injury Ave: 2%
[1]; 1120 g ae/ha postemergence
  % Injury 20-40% (individuals): 0
  % Injury <20% (individuals): 20
  % Injury >40% (individuals): 0
  % Injury Ave: 2%
[1]; 2240 g ae/ha postemergence
  % Injury 20-40% (individuals): 3
  % Injury <20% (individuals): 14
  % Injury >40% (individuals): 3
  % Injury Ave: 15%
[2]; 140 g ae/ha
  % Injury 20-40% (individuals): 1
  % Injury <20% (individuals): 0
  % Injury >40% (individuals): 2
  % Injury Ave: 47.0%
[2]; 560 g ae/ha
  % Injury 20-40% (individuals): 0
  % Injury <20% (individuals): 0
  % Injury >40% (individuals): 3
  % Injury Ave: 75.0%
[2]; 2240 g ae/ha
  % Injury 20-40% (individuals): 0
  % Injury <20% (individuals): 0
  % Injury >40% (individuals): 3
  % Injury Ave: 97.0%
[3]; 140 g ae/ha
  % Injury 20-40% (individuals): 0
  % Injury <20% (individuals): 2
  % Injury >40% (individuals): 0
  % Injury Ave: 8.0%
[3]; 560 g ae/ha
  % Injury 20-40% (individuals): 0
  % Injury <20% (individuals): 2
  % Injury >40% (individuals): 0
  % Injury Ave: 3.0%
[3]; 2240 g ae/ha
  % Injury 20-40% (individuals): 0
  % Injury <20% (individuals): 2
  % Injury >40% (individuals): 0
  % Injury Ave: 5.0%
[3]; T0 tobacco
  rate to which robust tolerance is provided: at least 2240 g ae/ha

## C[C@@H](Oc1ccc(Cl)cc1Cl)C(=O)O [R-dichloroprop, R-dichlorprop]
[1]; 800 g ae/ha postemergence
  % Injury 20-40% (individuals): 0
  % Injury <20% (individuals): 0
  % Injury >40% (individuals): 20
  % Injury Ave: 100%
[4]
  % Injury 20-40% (individuals): 0
  % Injury <20% (individuals): 0
  % Injury >40% (individuals): 20
  % Injury Ave: 100%
